Experiments:
male Wistar rats = test: Carrageenan-induced acute inflammation of plantar pads; type: in vivo, rat
Description: The role of […] was investigated by inducing inflammation of the plantar pads of rats with carrageenan, a model that mimics the state of acute inflammation in humans.
Inflammation was induced in male Wistar rats by means of injection of 0.1 ml of carrageenan at 1% in sterile saline solution in the rats' right plantar pad. Peak inflammation occurs 3 hours after injection of carrageenan; at this point (t=0), the rats are treated with […] or diclofenac or indometacin (100 μM in 0.15 ml); the antinociceptive effect of the drugs was measured at 1, 3, 6, 12 and 24 hours after their administration.

naive CD4 cells = test: Induction of T regulatory (Treg) cells from naive CD4 cells; type: cell-based, mouse; details: anti-CD3 stimulation 96 h, increasing concentrations; FIG. 22
Description: We evaluated the capacity of […] to induce in vitro the differentiation of naive CD4 cells into immunosuppressive Treg cells characterized by the phenotype CD4+CD25+ and by expression of the Foxp3 transcription factor. […] The naive CD4 cells were stimulated with anti-CD3 antibodies for 96 h in the presence of increasing concentrations of […].

[1] = system: lymphopenic mice with deletion of cd3ε; test: Chronic intestinal inflammation by transfer of naive CD4 cells; type: in vivo, mouse
Excerpt: To study the effect of […] in idiopathic inflammatory diseases of the intestine, such as Crohn's disease and ulcerative colitis, we used lymphopenic mice with deletion of cd3ε. T lymphocytes are not present in these animals, and transfer of naive CD4 cells causes chronic intestinal inflammation. The simultaneous transfer of regulatory T cells (Treg) CD4^+CD25^+ […] the onset of the disease. […] Compared to mice reconstituted with naive CD4 and Treg cells (healthy controls), mice reconstituted with naive CD4 cells and treated with carriers show a severe oedematous-haemorrhagic picture of the colon with splenomegaly and lymphadenomegaly. […] The accumulation of Alcian-positive mucus filaments is visible inside the lumen of the cryptae (arrowheads). In the mice injected with CD4 cells and treated with carriers, muciparous goblet cells have completely disappeared along the cryptae. The cryptae are markedly hyperplasic with intensive cellular crowding, stratification, obliteration of the lumen (arrowheads), and a high frequency of mitotic cells is encountered (arrows). […] The cryptae are moderately hyperplasic and mucus filaments can be seen inside the lumen of the cryptae (arrowheads).

NOD/scid mice = test: Graft-versus-host disease (human PBMCs); type: in vivo, mouse
Description: Two groups of NOD/scid mice of 8-10 weeks were used, and were kept in cages under sterile flow at an SPF animal facility.
On day −1, to avoid residual activity of natural killer cells, the mice were administered an anti-NK antibody intraperitoneally (TMβ-1.1 mg/mouse). On day 0 the mice were irradiated (300 rad) and they were administered, intraperitoneally, 20×10^6 human peripheral blood mononuclear cells (PBMCs), previously isolated. The PBMCs are isolated by means of buffy coat from blood from healthy donors.
On the same day, the mice were treated with […] intraperitoneally at two doses, 10 mg/kg and 20 mg/kg. The treatment was repeated daily for 15 days.
The mice were checked regularly 3 times a week to monitor the weight loss (also as independent variable) and signs of GvHD using a clinical score (0 for weight loss <10%, 1 for 10%-20%, 2 for 20%; hunching (0-2), reactivity (0-2), appearance of the fur (0-2), and skin integrity (0-2)), with a maximum score of 10.

[2] = system: mice with the R117H CFTR(CF) mutation and wild-type (WT) mice; test: Cystic fibrosis: intratracheal LPS in R117H CFTR and WT mice; type: in vivo, mouse
Description: For the experiments, 32 mice were used with the R117H CFTR(CF) mutation, responsible for the onset of the inflammatory disorder, and 18 wild-type (WT) mice with a genetic background of the C57BL/6 type.
The trachea was then intubated with a MicroSprayer (PennCentury), capable of vaporizing the drug as aerosol at a concentration of 25 μl of […] 300 μM or of vehicle. The mice were weighed daily.
On day 4, all the mice received the inflammatory stimulus (1 μg of LPS) together with […] or vehicle; separate experiments were conducted, inducing only the inflammatory stimulus in the mice. About 24 hours after administration of LPS, the mice were sacrificed and samples of BALF were collected, from which the cellular component was isolated, and was analysed under the microscope for characterizing its leukocyte phenotype.

C=C(C=O)OC(C=O)n1cnc2c(N)ncnc21 (stereo not shown) [2-[1-(6-aminopurin-9-yl)-2-oxoethoxy]prop-2-enal]
macrophages infiltrating the plantar pad (immunohistochemistry) (male Wistar rats; biopsies from plantar pads): significantly reduces the presence of macrophages | effect on thermal hyperalgesia compared with diclofenac or indometacin (male Wistar rats; single dose 6 mg/kg): greater than the effect produced by diclofenac or indometacin | thermal hyperalgesia in the plantar pads (male Wistar rats; single dose 6 mg/kg, local and intravenous, for 24 hours): significantly reduces thermal hyperalgesia | differentiation of naive CD4 cells into Treg cells (CD4+CD25+ Foxp3) (naive CD4 cells): induced the differentiation of Treg cells in a manner that was dependent on the dose used | colon sections stained with Alcian-PAS ([1]; mice injected with CD4 cells): muciparous goblet cells positive to Alcian-PAS are identifiable along the cryptae | macroscopic appearance of colon, spleen and lymph nodes ([1]; treatment two weeks after injection of naive CD4 cells, FIG. 31): dramatic improvement of the inflammation of the colon | histological scores (0-4, Asseman) ([1]; vs carriers, no significant difference to healthy control): significant improvement of the lesions | resistance to GvHD (clinical score) (NOD/scid mice; 10 mg/kg and 20 mg/kg i.p. daily for 15 days, FIG. 37): statistically significant, dose-dependent resistance to GvHD | survival (NOD/scid mice; 10 and 20 mg/kg i.p., untreated all die within 50 days): reaching three months from transplant | reduction in concentrations of IL-1β, IL-6, TNFα and the murine analogue of IL-8 in BAL ([2]; CF and WT mice, FIGS. 42B and C): 56%-83% | decrease in neutrophil percentage relative to vehicle ([2]; CF mice, intratracheal LPS, 25 μl of 300 μM aerosol, p<0.001, FIG. 42A): 60% | decrease in the percentage of neutrophils ([2]; WT mice, intratracheal LPS, compared to 89% for vehicle, p<0.01): 47% | body weight ([2]; within first 24 hours, vehicle lost 4-8%, FIG. 41): no change in their body weight

From patent US20160129005A1, “ADENINE DERIVATIVES HAVING IMMUNOMODULATING ANTI-INFLAMMATORY AND ANALGESIC ACTIVITY” (MEDESTEA RESEARCH & PRODUCTION S.p.A., priority 2011, published 2016)
